The text below walks through data of article PMC11725774 (Cancer Research Communications, 2025).

Experiment [1] concerns TUS/R line 3 (MOLM-14). Nature of the experiment: Growth inhibition of TUS-resistant subline. Type of experiment: cell-based, human. The settings on record: Homo sapiens, MOLM-14, read-out: GI50 (nM) TUS/R line 3; mean ± SEM (Supplementary Table 6).
Experiment [2] deals with p-JAK1, p-JAK2, p-STAT3, p-STAT5 in MOLM-14 cells cocultured with HS-5 cells. Nature of the experiment: HS-5 stromal coculture Western blot. Type of experiment: cell-based, human. The note with it: concentrations <1 μmol/L; MOLM-14 cocultured with HS-5. The method, then:
Cells were treated as described in respective Results sections and then lysed with RIPA buffer. Western blot analyses were performed with antibodies capable of detecting both total and phosphorylated forms of each kinase purchased from commercial sources. Information on the antibodies used is provided in the Supplementary Materials section.
HS-5 cells were obtained from ATCC. The HS-5 stromal cells (5 × 10^5 cells/well) were seeded into six-well plates, and 24 hours later, MOLM-14 cells (1 × 10^6 cells/well) were seeded into the same plate and then cultured for 48 hours. Cultures were then exposed to test drugs for 2 hours, harvested, and lysates were prepared for Western blotting. For stimulation studies, MOLM-14 or KG-1a cells were seeded at 5.0 to 6.0 × 10^6 cells/well into six-well plates in 2 mL medium. Cells were stimulated with 500 μg/mL fibrinogen (Sigma-Aldrich, Catalog # F3879) for 1 hour at 37°C. Alternatively, they were treated with 10 μg/mL IgG (Invitrogen, Catalog # 31154) for 10 minutes on ice followed by IgG cross-linking with 1 μg/mL anti–human IgG antibody for 10 minutes on ice. After these incubations, the media were removed and the cells were washed with cold PBS, lysed, and analyzed by Western blotting.
(In western blotting, separated proteins are transferred to a membrane and probed.)

Experiment [3] relates to Ba/F3 cells FLT3 ITD. Nature of the experiment: Growth inhibition of Ba/F3 cells. It counts as cell-based, murine. The settings on record: Mus musculus, BaF3; Ba/F3 FLT3 ITD; mean ± SD; read-out: GI50. On the procedure:
(§1) MV-4-11 cells expressing NRAS^G12D were prepared by transduction with a lentiviral vector encoding the NRAS^G12D mutation. Assays using a panel of parental Ba/F3 into which an additional copy of either WT or a mutant form of FLT3 was introduced were performed at Kyinno Biotechnology Co., Ltd. All cell lines were short tandem repeat authenticated at ATCC or at DSMZ when originally obtained, and no further authentication was done after receipt of the cells in the laboratory.
(§2) Assays using Ba/F3 cells expressing WT and mutant forms of FLT3 were performed by Kyinno Biotechnology. The cells were cultured in the medium recommended by the source for each cell line. Growth inhibition assays were performed using either Cell Titer 96 Aqueous One Solution Cell Proliferation assay (Promega, # G3581) or CCK8 (Dojindo, # CK-04). […] IC50 values were determined from growth inhibition curves fitted using GraphPad Prism and a nonlinear regression model with sigmoidal dose response. Unless otherwise indicated, data are presented as mean ± SEM.

The test system of experiment [4] is Ba/F3 cells FLT3 D835Y. Nature of the experiment: Growth inhibition of Ba/F3 cells. It counts as cell-based, murine. The note with it: Mus musculus, BaF3; Ba/F3 FLT3 D835Y; mean ± SD; read-out: GI50. The method, then:
as §1, §2

The subject of experiment [5] is Ba/F3 cells FLT3 ITD/F691L. The experiment can be described thus: Growth inhibition of Ba/F3 cells. It counts as cell-based, murine. The settings on record: Mus musculus, BaF3; Ba/F3 FLT3 ITD/F691L; mean ± SD; read-out: GI50. On the procedure: as §1, §2
In experiment [6] the test system is Ba/F3 cells FLT3 ITD/D835Y. The experiment can be described thus: Growth inhibition of Ba/F3 cells. The settings on record: Mus musculus, BaF3; Ba/F3 FLT3 ITD/D835Y; mean ± SD; read-out: GI50. Type of experiment: cell-based, murine. On the procedure:
as §1, §2

For experiment [7], the system named is Ba/F3 cells FLT3 WT. The experiment can be described thus: Growth inhibition of Ba/F3 cells. Type of experiment: cell-based, murine. The settings on record: Mus musculus, BaF3; Ba/F3 FLT3 WT; mean ± SD; read-out: GI50. On the procedure: as §1, §2
For experiment [8], the target named is FLT3 D835Y (Homo sapiens, UniProt P36888, D835Y). Nature of the experiment: Biochemical enzyme activity screening assay. The settings on record: kinase FLT3 D835Y; mean ± SD.
Experiment [9] has as its system TUS/R line 4 (MOLM-14). Nature of the experiment: Growth inhibition of TUS-resistant subline. It counts as cell-based, human. The note with it: Homo sapiens, MOLM-14, read-out: GI50 (nM) TUS/R line 4; mean ± SEM (Supplementary Table 6).
In experiment [10] the test system is MV-4-11 cells. The experiment can be described thus: Growth inhibition of AML cell line. It counts as cell-based, human. The note with it: Homo sapiens, MV4-11. The method, then: as §1, §2
Experiment [11] concerns MOLM-14 cells (parental). The experiment can be described thus: Growth inhibition of AML cell line. Type of experiment: cell-based, human. The settings on record: Homo sapiens, MOLM-14. On the procedure: as §1, §2
Experiment [12] deals with MOLM-13 cells. Nature of the experiment: Growth inhibition of AML cell line. It counts as cell-based. The settings on record: Homo sapiens, mean ± SD. On the procedure: as §1, §2
Experiment [13] deals with MV-4-11 NRAS G12D Clone 15. The experiment can be described thus: Growth inhibition of NRAS G12D clone. Type of experiment: cell-based, human. The settings on record: Homo sapiens, MV4-11; MV-4-11 NRAS G12D; mean ± SEM. The method, then: as §1, §2
The test system of experiment [14] is MV-4-11 NRAS G12D Clone 4. Nature of the experiment: Growth inhibition of NRAS G12D clone. Type of experiment: cell-based, human. The note with it: Homo sapiens, MV4-11; MV-4-11 NRAS G12D, high expression; mean ± SEM; read-out: GI50 (nM) Clone 4. The method, then:
as §1, §2

In experiment [15] the test system is MV-4-11 NRAS G12D Clone 1. The experiment can be described thus: Growth inhibition of NRAS G12D clone. It counts as cell-based, human. The note with it: Homo sapiens, MV4-11; MV-4-11 NRAS G12D; mean ± SEM. The method, then: as §1, §2

Where two headings read alike, the source gives them in different places.

Turning to `CCc1nc(C(N)=O)c(Nc2ccc(N3CCC(N4CCN(C)CC4)CC3)c(OC)c2)nc1NC1CCOCC1` [Gilteritinib, gilteritinib], the GI50 in experiment [1] was 118 nM; in experiment [3], 1.2 ± 0.2 nM; in experiment [4] it was 2.3 ± 0.7 nM; in experiment [5], 33 ± 6.2 nM; in experiment [6], 4.4 ± 0.6 nM; in experiment [7], 7 ± 1.5 nM. In addition, the GI50 in experiment [8] is 0.5 ± 0.1 nM; in experiment [9], 128 nM; in experiment [10] (MV-4-11, mean ± SD (Supplementary Table 4), read-out: GI50), 2 ± 0.2 nM; in [10] (mean ± SEM (Supplementary Table 7), read-out: GI50 (nM) Parental (MV-4-11)) it was 2.4 ± 0.7 nM; in experiment [11] (mean ± SEM (Supplementary Table 6), read-out: GI50 (nM) Parental MOLM-14 (converted)), 8.6 nM; in experiment [11] (mean ± SD (Supplementary Table 4), read-out: GI50) it was 6.1 ± 2.8 nM. In addition, the GI50 was 8.4 ± 2.9 nM in [12], 5.6 ± 1.1 nM in experiment [13], 51 ± 12.2 nM in [14] and 3.3 ± 0.7 nM in experiment [15]. Also, the “inhibition of p-JAK1, p-JAK2, p-STAT3, or p-STAT5” value in [2] was “Neither TUS nor gilteritinib inhibited”.
